“Also recorded” adds a separate entry of the source.
Assays:
mice [1] = experiment: Scratching behavior after i.d. injection into dorsal neck skin; format: in vivo, mouse; details: for scratching behavior (itch) induced by i.d. injection of lipid: i.d. into dorsal neck, LPA 18:1 500 μg, LPC 50-500 μg, LPC species at the same dose
Protocol: (§1) Behavioral assessment. Mice were shaved at the dorsal neck 1 d before experiments. Mice were allowed to acclimate to a Plexiglas chamber for at least 30 min before testing and received intradermal (i.d.) injection of 50 μL of LPA 18:1, LPC, LPC 14:0, LPC 16:0, LPC 18:0, LPC 18:1, miR-146a mimic, miR-146a scramble, ATP or vehicles through a 30-gauge needle (Becton Dickinson, Franklin Lakes, NJ) into the neck skin. After injections, mice were immediately placed back to the chamber, and the scratching behavior was recorded by a Panasonic video camera for 30 min. Hind limb scratching behavior directed toward the injected area at the nape of neck was observed. One scratch is defined as a lifting of the hind limb toward the injection site and then a replacing of the limb back to the floor, regardless of how many scratching strokes take place between those two movements. Behavioral analysis was conducted by observers blinded to genotype.

human keratinocytes = experiment: Ca2+ imaging in cultured human keratinocytes; format: cell-based; details: for effect on LPC 18:1 (10 μM)-induced Ca2+ influx (GPCR-signaling inhibitors): inhibitor 10 μM; for LPA (18:1) induced Ca2+ influx: up to 30 μM
Protocol: In brief, surgically discarded foreskin samples, obtained from Duke Children's Hospital in accordance to institutionally approved IRB protocol, were incubated with Dispase (Gibco, Gaithersburg, MD, 4 U/mL) for 12-16 h at 4° C. followed by 0.05% trypsin (Gibco, Gaithersburg, MD) for 10-20 min at 37° C. Cells were maintained in keratinocyte serum-free media (Invitrogen, Waltham, MA) with 5% CO2 at 37° C. and used at passage 2-3.
(§2) In vitro and ex vivo Ca^2+ imaging. […] Ca^2+ imaging of cultured cells in response to chemicals was conducted after loading with 5 μM Fura2-AM (Invitrogen, Waltham, MA) for 45 min after a ratiometric Ca^2+-imaging protocol with 340/380-nm blue light for dual excitation. Ratios of emissions were acquired at 0.5 Hz. ΔR/R0 was determined as the fraction of the increase of a given ratio over baseline ratio divided by baseline ratio. […] Control cells received vehicles.

hTRPV4 = target: T1, hTRPV4 (Homo sapiens, UniProt Q9HBA0); experiment: Ca2+ imaging in HEK cells transfected with hTRPV4; format: cell-based; details: inhibitor 10 μM
T1 construct: expressed in transfected cells; host or cells: HEK293 (ATCC CRL-1573)
Protocol: Cell culture and transfection. HEK293 cells (ATCC® CRL-1573) were cultured on poly-D-lysine coated coverslips in 24-well plate containing DMEM media with high-Glucose (Gibco, Gaithersburg, MD) supplemented with 10% fetal bovine serum (FBS, HyClone Laboratories, Logan, UT) and 100 U/mL of penicillin/streptomycin (Gibco, Gaithersburg, MD). Cell cultures were maintained with 5% of CO2 in a humidified incubator at 37° C. HEK cells were transfected with rat or human wild type or mutant TRPV4 channels with EGFP or YFP coupled to their C-termini (1.5 μg of plasmid for excised patch clamp and Ca^2+ imaging and 200 ng for single-channel experiments). The jetPEI™ Polyplus transfection reagent (Polyplus Transfection, New York, NY) for electrophysiology or Lipofectamine™ 2000 Reagent (Invitrogen, Waltham, MA) for Ca^2+ imaging were used for transfections per manufacturer's instructions as previously described (Chen et al. Pain 2014, 155, 2662-2672; Morales-Lazaro et al. Nat. Commun. 2016, 7, 13092). To investigate whether miR-146a can directly activate TRPV1 channels or indirectly via TLRs, HEK293 cells were transfected with rTRPV1 or co-transfected rTRPV1 with rTLR7, rTLR2, or rTLR6 (Addgene, Watertown, MA) for Ca^2+ imaging assay. Control cells were transfected with GFP or YFP.
In vitro and ex vivo Ca^2+ imaging. Routine procedures were followed for Ca^2+ imaging in cultured DRG sensory neurons, epidermal keratinocytes, and HEK cells (Chen et al. J. Biol. Chem. 2016, 291, 10252-10262; Chen et al. Pain 2014, 155, 2662-2672). Ca^2+ imaging of cultured cells in response to chemicals was conducted after loading with 5 μM Fura2-AM (Invitrogen, Waltham, MA) for 45 min after a ratiometric Ca^2+-imaging protocol with 340/380-nm blue light for dual excitation. Ratios of emissions were acquired at 0.5 Hz. ΔR/R0 was determined as the fraction of the increase of a given ratio over baseline ratio divided by baseline ratio. To investigate the effects of the TRPV4 inhibitors GSK205 or HC067047, the PLC inhibitor U73122, the Gag G Protein inhibitor BIM46187, the Gβγ G protein inhibitor Gallein, the TRPV1 inhibitor SB366791, the TRPA1 inhibitor HC030031, and IPP for TRPV3, on LPA-induced Ca^2+ influx, LPC-induced Ca^2+ influx, or miR-146α-induced Ca^2+ influx, cells were incubated with the inhibitors for 15 min before stimulation. Control cells received vehicles.

mouse keratinocytes = experiment: Ca2+ imaging in cultured mouse keratinocytes; format: cell-based; details: for effect on LPC 18:1 (10 μM)-induced Ca2+ influx (GPCR-signaling inhibitors): inhibitor 10 μM; for LPA (18:1) induced Ca2+ influx: up to 30 μM
Protocol: Basal keratinocytes were separated from the cornified sheets by filtration through a […] cell strainer. Keratinocytes were plated on collagen I-coated dishes or glass coverslips and grown in EME media (Gibco, Gaithersburg, MD) containing 8% chelex (Bio-rad, Hercules, CA)-treated FBS with the final Ca^2+ adjusted to 0.05 mM, bovine pituitary extract (50 μg/mL), epidermal growth factor (5 ng/mL), and lx antibiotics/antimycotics (Gibco, Gaithersburg, MD) in a humidified incubator with 5% CO2 at 37° C. for 5-7 days until use. To knockdown Trpv4 in isolated keratinocytes from newborn keratinocyte-Trpv4 cKO mice, cells were treated with 4-OH tamoxifen at 500 nM for 72 h.
as §2

mice [2] = experiment: Effect of inhibitor pretreatment on LPA-, LPC- or miR-146a-induced scratching behavior; format: in vivo, mouse; details: for effect on scratching evoked by i.d. miR-146a (4 nmol) (TLR inhibitors): i.p. 10 mg/kg
Protocol: as §1, with “Mice were allowed to acclimate to a Plexiglas chamber for at least 30 min before testing and received intradermal (i.d.) injection of 50 μL of LPA 18:1, LPC, LPC 14:0, LPC 16:0, LPC 18:0, LPC 18:1, miR-146a mimic, miR-146a scramble, ATP or vehicles through a 30-gauge needle (Becton Dickinson, Franklin Lakes, NJ) into the neck skin.” left out
Control animals received the same volume of vehicles.
Lumbar puncture was made with a 30G-needle and drugs at 5 μL of volume were delivered. Scratching behavior assay was started approximately 2 weeks after resiniferatoxin treatment.

T1 sequence (Q9HBA0 whole entry): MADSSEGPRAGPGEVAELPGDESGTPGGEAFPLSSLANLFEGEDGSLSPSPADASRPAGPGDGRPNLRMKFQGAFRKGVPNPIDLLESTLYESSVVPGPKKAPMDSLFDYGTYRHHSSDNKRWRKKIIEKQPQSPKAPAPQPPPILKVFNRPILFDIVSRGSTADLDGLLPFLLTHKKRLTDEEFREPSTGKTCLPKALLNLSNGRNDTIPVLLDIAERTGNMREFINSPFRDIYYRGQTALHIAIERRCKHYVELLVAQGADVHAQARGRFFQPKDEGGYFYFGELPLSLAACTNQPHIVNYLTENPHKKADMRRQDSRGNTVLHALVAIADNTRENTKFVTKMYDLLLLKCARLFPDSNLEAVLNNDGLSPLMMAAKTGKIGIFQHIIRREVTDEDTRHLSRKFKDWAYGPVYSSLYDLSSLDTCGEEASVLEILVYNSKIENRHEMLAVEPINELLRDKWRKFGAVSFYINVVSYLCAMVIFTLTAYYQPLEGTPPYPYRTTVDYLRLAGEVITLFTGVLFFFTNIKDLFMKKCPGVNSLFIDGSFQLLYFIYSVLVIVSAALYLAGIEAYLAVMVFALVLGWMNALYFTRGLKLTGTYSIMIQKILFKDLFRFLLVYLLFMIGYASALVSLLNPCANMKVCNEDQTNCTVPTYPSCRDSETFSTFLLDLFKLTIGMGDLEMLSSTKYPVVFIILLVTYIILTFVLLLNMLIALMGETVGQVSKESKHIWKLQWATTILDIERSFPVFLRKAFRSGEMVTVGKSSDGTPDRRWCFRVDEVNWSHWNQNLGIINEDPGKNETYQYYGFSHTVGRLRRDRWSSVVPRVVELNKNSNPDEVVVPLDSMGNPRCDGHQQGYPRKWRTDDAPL

## Nc1ncnc2c1ncn2[C@@H]1O[C@H](COP(=O)(O)OP(=O)(O)OP(=O)(O)O)[C@@H](O)[C@H]1O [ATP, adenosine triphosphate]
Mice [1]; i.d. 10 nmol or 100 nmol vs normal saline
  scratching behavior induced by i.d. ATP: not to have any pruritogenic effects; also recorded: did not elicit significant scratching behaviors

## N[C@@H](CSSC[C@H](N)C(=O)N1CCn2cc(-c3ccccc3)nc2[C@@H]1CC1CCCCC1)C(=O)N1CCn2cc(-c3ccccc3)nc2[C@@H]1CC1CCCCC1 [BIM46187]
Human keratinocytes
  effect on LPC 18:1 (10 μM)-induced Ca2+ influx (GPCR-signaling inhibitors): not significantly altered
Human keratinocytes; listed as BIM-46187
  effect on LPC 18:1 (10 μM)-induced Ca2+ influx (GPCR-signaling inhibitors): no inhibitory effects
hTRPV4
  effect on LPC 18:1 (10 μM)-induced Ca2+ influx (GPCR-signaling inhibitors): not significantly altered
hTRPV4; listed as BIM-46187
  effect on LPC 18:1 (10 μM)-induced Ca2+ influx (GPCR-signaling inhibitors): no inhibitory effects
Mouse keratinocytes
  effect on LPC 18:1 (10 μM)-induced Ca2+ influx (GPCR-signaling inhibitors): not significantly altered
Mouse keratinocytes; listed as BIM-46187
  effect on LPC 18:1 (10 μM)-induced Ca2+ influx (GPCR-signaling inhibitors): no inhibitory effects

## c1cc(-c2nc3ccc(OCCCN4CCCC4)cc3o2)ccc1OCCCN1CCCC1 [E6446]
Mice [2]
  effect on scratching evoked by i.d. miR-146a (4 nmol) (TLR inhibitors): not significantly altered

## O=C(O)CC1CC(c2ccccc2)=NO1 (centres unmarked) [GIT27]
Mice [2]
  effect on scratching evoked by i.d. miR-146a (4 nmol) (TLR inhibitors): not significantly altered

## O=C1OC2(c3ccccc31)c1ccc(O)c(O)c1Oc1c2ccc(O)c1O [Gallein]
Human keratinocytes
  effect on LPC 18:1 (10 μM)-induced Ca2+ influx (GPCR-signaling inhibitors): no inhibitory effects; also recorded: not significantly altered
hTRPV4
  effect on LPC 18:1 (10 μM)-induced Ca2+ influx (GPCR-signaling inhibitors): no inhibitory effects; also recorded: not significantly altered
Mouse keratinocytes
  effect on LPC 18:1 (10 μM)-induced Ca2+ influx (GPCR-signaling inhibitors): no inhibitory effects; also recorded: not significantly altered

## O=C(CCN1CCN(C(=O)OCc2cc(Cl)cc(Cl)c2)CC1)c1ccc2[nH]c(=O)oc2c1 [PF8380]
Mice [2]; i.p. pretreatment 10 mg/kg, WT mice
  effect on LPC-induced itch (autotaxin inhibitor), WT mice: attenuated

## COc1ccc2c(c1)CC[C@@H]1[C@@H]2CC[C@]2(C)[C@@H](NCCCCCCN3C(=O)C=CC3=O)CC[C@@H]12 [U73122]
Human keratinocytes
  effect on LPC 18:1 (10 μM)-induced Ca2+ influx (GPCR-signaling inhibitors): no inhibitory effects; also recorded: not significantly altered
hTRPV4
  effect on LPC 18:1 (10 μM)-induced Ca2+ influx (GPCR-signaling inhibitors): no inhibitory effects; also recorded: not significantly altered
Mouse keratinocytes
  effect on LPC 18:1 (10 μM)-induced Ca2+ influx (GPCR-signaling inhibitors): no inhibitory effects; also recorded: not significantly altered

## LPC 14:0
Mice [1]
  scratching behavior (itch) induced by i.d. injection of lipid: caused robust itch

## lysophosphatidic acid [LPA (18:1)]
Human keratinocytes
  LPA (18:1) induced Ca2+ influx: not dose-dependent and was less robust than that of LPC
Human keratinocytes; listed as LPA
  LPA (18:1) induced Ca2+ influx: much reduced
Mice [1]; i.d. 500 μg into dorsal neck, WT mice
  scratch bouts: 58 scratch bouts in 30 min
Mice [1]
  scratching behavior (itch) induced by i.d. injection of lipid: elicited moderate scratching; also recorded: induced itch
Mouse keratinocytes
  LPA (18:1) induced Ca2+ influx: not dose-dependent and was less robust than that of LPC
Mouse keratinocytes; listed as LPA
  LPA (18:1) induced Ca2+ influx: much reduced
